Test results reported in US20220251084A1, “PROGRANULIN MODULATORS AND METHODS OF USING THE SAME” (ARKUDA THERAPEUTICS, priority 2019, published 2022).
Like-named read-outs stand apart in the source and are kept apart here.

Test system: progranulin (PGRN) secretion, BV-2 cells
Assay: PGRN assay: progranulin induction cellular assay (ELISA of secreted mouse PGRN)
Assay type: cell-based
How it was run: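 Progranulin induction measured in BV-2 cells plated at about 80% confluence the day before, given 1 h to attach, then incubated 16 h. Secreted mouse PGRN quantified by ELISA.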

[1] = Mus musculus, BV-2, PGRN assay, Table C, secreted mouse PGRN in cell culture medium, ELISA
[2] = PGRN assay, Table C, secreted mouse PGRN in cell culture medium, ELISA

| SMILES | EC50 [1] | further results |
| --- | --- | --- |
| CNC(=O)c1ccc2c(c1)CCN(C(=O)N[C@@H]1CN3CCC1CC3)[C@@H]2c1ccc(F)cc1 [Compound 2091] | > 10 µM |  |
| CN1CCC(COC(=O)N2CCc3ccccc3[C@@H]2c2ccc(F)cc2)CC1 [Compound 2095] |  | EC50 [2]: 3.17 µM |
| O=C(OCC12CCN(CC1)CC2)N1CCc2ccccc2[C@@H]1c1ccc(F)cc1F [Compound 2096] | 0.387 µM |  |
| O=C(OC1[C@@H]2CC3C[C@@H]1CN(C3)C2)N1CCc2ccccc2[C@@H]1c1ccc(F)cc1 (stereo partly drawn) [Compound 2097] |  | EC50 [2]: 2.82 µM |
| O=C(OC1[C@@H]2CC3C[C@@H]1CN(C3)C2)N1CCc2ccccc2[C@@H]1c1ccc(F)cc1 (stereo partly drawn) [Compound 2098] |  | EC50 [2]: 0.339 µM |
| CNC(=O)c1ccc2c(c1)CCN(C(=O)O[C@@H]1CN3CCC1CC3)[C@H]2c1ccc(F)cc1 [Compound 2100] |  | EC50 (Mus musculus, BV-2): > 10 µM |
| CNC(=O)c1ccc2c(c1)CCN(C(=O)O[C@@H]1CN3CCC1CC3)[C@@H]2c1ccc(F)cc1 [Compound 2101] |  | EC50 (Mus musculus, BV-2): > 10 µM |
| O=C(N[C@@H]1CN2CCC1CC2)C(=O)N1CCc2ccccc2[C@@H]1c1ccc(F)cc1 [Compound 2104] | 1.61 µM |  |
| CN1CCC(COC(=O)N2CCc3ccccc3[C@@H]2c2ccc(F)cc2F)CC1 [Compound 2105] | 1.07 µM |  |
| O=C(OCC1CCN(CC(F)(F)F)CC1)N1CCc2ccccc2[C@@H]1c1ccc(F)cc1 [Compound 2107] | > 10 µM |  |
| CN1CCC(COC(=O)N2CCc3ccccc3[C@@H]2c2cc(F)cc(F)c2)CC1 [Compound 2108] | > 3.16 µM |  |
| CN1CCC(COC(=O)N2CCc3ccccc3[C@H]2c2cc(F)cc(F)c2)CC1 [Compound 2109] | > 10 µM |  |
| O=C(OCC12CCN(CC1)CC2)N1CCc2ccccc2[C@@H]1c1ccc(F)c(F)c1 [Compound 2110] | 7.82 µM |  |
| O=C(OCC12CCN(CC1)CC2)N1CCc2ccccc2[C@H]1c1ccc(F)c(F)c1 [Compound 2111] | 0.635 µM |  |
| O=C(OCC12CCN(CC1)CC2)N1CCc2ccccc2[C@@H]1c1cccc(F)c1F [Compound 2112] | 8.27 µM |  |
| O=C(OCC12CCN(CC1)CC2)N1CCc2ccccc2[C@H]1c1cccc(F)c1F [Compound 2113] | 0.596 µM |  |
| CN1CCC(F)(COC(=O)N2CCc3ccccc3[C@@H]2c2ccc(F)cc2)CC1 [Compound 2114] | 0.401 µM |  |
| C#CCOc1ccc2c(c1)[C@H](c1ccc(F)cc1)N(C(=O)N[C@@H]1CN3CCC1CC3)CC2 [Compound 2115, (S)-1-(4-fluorophenyl)-7-(prop-2-yn-1-yloxy)-N—((S)-quinuclidin-3-yl)-3,4-dihydroisoquinoline-2(1H)-carboxamide] | 8.37 µM |  |
| COC(=O)c1ccc2c(c1)[C@H](c1ccc(F)cc1)N(C(=O)N[C@@H]1CN3CCC1CC3)CC2 [Compound 2116, methyl (S)-1-(4-fluorophenyl)-2-(((S)-quinuclidin-3-yl)carbamoyl)-1,2,3,4-tetrahydroisoquinoline-7-carboxylate] | > 10 µM |  |
| COC(=O)c1ccc2c(c1)[C@H](c1ccc(F)cc1)N(C(=O)NCC13CCN(CC1)CC3)CC2 [Compound 2117, methyl (S)-1-(4-fluorophenyl)-2-((quinuclidin-4-ylmethyl)carbamoyl)-1,2,3,4-tetrahydroisoquinoline-7-carboxylate] | > 10 µM |  |

| SMILES | EC50 [1] | further results |
| --- | --- | --- |
| CNC(=O)c1ccc2c(c1)[C@H](c1ccc(F)cc1)N(C(=O)N[C@@H]1CN3CCC1CC3)CC2 [Compound 2118, (S)-1-(4-fluorophenyl)-N7-methyl-N2-((S)-quinuclidin-3-yl)-3,4-dihydroisoquinoline-2,7(1H)-dicarboxamide] | > 10 µM |  |
| CNC(=O)c1ccc2c(c1)[C@H](c1ccc(F)cc1)N(C(=O)NCC13CCN(CC1)CC3)CC2 [Compound 2119, (S)-1-(4-fluorophenyl)-N7-methyl-N2-(quinuclidin-4-ylmethyl)-3,4-dihydroisoquinoline-2,7(1H)-dicarboxamide] | > 10 µM |  |
| CN1CCC2(CCCN2C(=O)N2CCc3ccccc3[C@@H]2c2ccc(F)cc2)CC1 [Compound 2120, (S)-(1-(4-fluorophenyl)-3,4-dihydroisoquinolin-2(1H)-yl)(8-methyl-1,8-diazaspiro[4.5]decan-1-yl)methanone] | 2.68 µM |  |
| CN1CCC2(CC1)CCN(C(=O)N1CCc3ccccc3[C@@H]1c1ccc(F)cc1)C2 [Compound 2121] | > 10 µM |  |
| O=C(O[C@@H]1CN2CCC1CC2)N1CCc2ccsc2C1c1ccc(F)cc1 (stereo partly drawn) [Compound 2122, (S)-quinuclidin-3-yl 7-(4-fluorophenyl)-4,7-dihydrothieno[2,3-c]pyridine-6(5H)-carboxylate] |  | EC50: 3.28 µM |
| O=C(O[C@@H]1CN2CCC1CC2)N1CCn2ccnc2C1c1ccc(F)cc1 (stereo partly drawn) [Compound 2123, (S)-quinuclidin-3-yl 8-(4-fluorophenyl)-5,6-dihydroimidazo[1,2-a]pyrazine-7(8H)-carboxylate] |  | EC50: > 10 µM |
| O=C(O[C@@H]1CN2CCC1CC2)N1CCn2nnnc2C1c1ccc(F)cc1 (stereo partly drawn) [Compound 2124] |  | EC50: 5.34 µM |
| CN1CCC(OC(=O)N2CCc3ccccc3[C@@H]2c2ccc(F)cc2)(C(F)(F)F)CC1 [Compound 2128, 1-methyl-4-(trifluoromethyl)piperidin-4-yl (S)-1-(4-fluorophenyl)-3,4-dihydroisoquinoline-2(1H)-carboxylate] | 7.54 µM |  |
| CN1CCC(C)(OC(=O)N2CCc3ccccc3[C@@H]2c2ccc(F)cc2)CC1 [Compound 2129] | 0.358 µM |  |
| O=C(OCCC12CCN(CC1)CC2)N1CCc2ccccc2[C@@H]1c1ccc(F)cc1 [Compound 2130, 2-(quinuclidin-4-yl)ethyl (S)-1-(4-fluorophenyl)-3,4-dihydroisoquinoline-2(1H)-carboxylate] | > 3.16 µM |  |
| O=S(=O)(CCN1CCc2ccccc2[C@@H]1c1ccc(F)cc1)C12CCN(CC1)CC2 [Compound 2131, (S)-4-((2-(1-(4-fluorophenyl)-3,4-dihydroisoquinolin-2(1H)-yl)ethyl)sulfonyl)quinuclidine] | 4.19 µM |  |
| Fc1ccc(C2c3ccccc3CCN2C(C[C@@H]2CN3CCC2CC3)C(F)(F)F)cc1 (stereo partly drawn) [Compound 2133] |  | EC50: 9.76 µM |
| CN1CCC(COC(=O)N2CCc3ccccc3[C@@H]2c2cccc(F)c2F)CC1 [Compound 2134] | > 10 µM |  |
| CN1CCC(COC(=O)N2CCc3ccccc3[C@H]2c2cccc(F)c2F)CC1 [Compound 2135] | 2.66 µM |  |
| COc1ccc(COc2ccc([C@H]3c4ccccc4CCN3C(=O)OCC34CCN(CC3)CC4)cc2)cc1 [Compound 2136] | > 3.16 µM |  |
| COc1ccc(COc2ccc([C@@H]3c4ccccc4CCN3C(=O)OCC34CCN(CC3)CC4)cc2)cc1 [Compound 2137] | > 3.16 µM |  |
| CN1CCC(COC(=O)N2CCc3ccccc3[C@@H]2c2ccc(F)c(F)c2)CC1 [Compound 2138, (1-methylpiperidin-4-yl)methyl-1-(3,4-difluorophenyl)-3,4-dihydroisoquinoline-2(1H)-carboxylate] | 1.21 µM |  |
| CN1CCC(COC(=O)N2CCc3ccccc3[C@@H]2c2cc(F)c(F)c(F)c2)CC1 [Compound 2142] | 8.49 µM |  |
| CN1CCC(COC(=O)N2CCc3ccccc3[C@H]2c2cc(F)c(F)c(F)c2)CC1 [Compound 2143] | 7.75 µM |  |
| CN1CC2COC[C@H](C1)C2OC(=O)N1CCc2ccccc2[C@@H]1c1ccc(F)cc1 (stereo partly drawn) [Compound 2144, (S)-((1R,5S,9r)-7-methyl-3-oxa-7-azabicyclo[3.3.1]nonan-9-yl) 1-(4-fluorophenyl)-3,4-dihydroisoquinoline-2(1H)-carboxylate] | 1.34 µM |  |

| SMILES | EC50 [1] | further results |
| --- | --- | --- |
| COc1ncc(COc2ccc([C@H]3c4ccccc4CCN3C(=O)OCC34CCN(CC3)CC4)cc2)cn1 [Compound 2145] | 2.93 µM |  |
| COc1ncc(COc2ccc([C@@H]3c4ccccc4CCN3C(=O)OCC34CCN(CC3)CC4)cc2)cn1 [Compound 2146] | 1.61 µM |  |
| O=C(OCC12CCN(CC1)CC2)N1CCc2ccccc2[C@@H]1c1cc(F)c(F)c(F)c1 [Compound 2147] | 4.74 µM |  |
| O=C(OCC12CCN(CC1)CC2)N1CCc2ccccc2[C@H]1c1cc(F)c(F)c(F)c1 [Compound 2148] | 8.83 µM |  |
| O=C(OCC12CCN(CC1)CC2)N1CCc2ccccc2[C@@H]1c1ccc(OCc2cncnc2)cc1 [Compound 2149] | > 10 µM |  |
| O=C(OCC12CCN(CC1)CC2)N1CCc2ccccc2[C@H]1c1ccc(OCc2cncnc2)cc1 [Compound 2150] | 9.46 µM |  |
| O=C(Nc1ccncc1)N1CCc2ccccc2[C@@H]1c1ccc(F)cc1 [Compound 2151] | 1.16 µM |  |
| O=C(NCc1ccncc1)N1CCc2ccccc2[C@@H]1c1ccc(F)cc1 [Compound 2152] | 6.4 µM |  |
| O=C(OCC12CCN(CC1)CC2)N1CCc2ccccc2[C@@H]1c1ccc(OCc2ncccn2)cc1 [Compound 2155] | > 10 µM |  |
| O=C(OCC12CCN(CC1)CC2)N1CCc2ccccc2[C@H]1c1ccc(OCc2ncccn2)cc1 [Compound 2156] | 0.713 µM |  |
| O=C(OC1CCNCC1)N1CCc2ccccc2[C@@H]1c1ccc(F)cc1 [Compound 2161] |  | EC50 [2]: > 10 µM |
| O=C(OC1CNC1)N1CCc2ccccc2[C@@H]1c1ccc(F)cc1 [Compound 2162] |  | EC50 [2]: > 10 µM |
| CN1CCC(CCOC(=O)N2CCc3ccccc3[C@@H]2c2ccc(F)cc2)CC1 [Compound 2163] | > 10 µM |  |
| O=C(NCC1CCNCC1)N1CCc2ccccc2[C@@H]1c1ccc(F)cc1 [Compound 2165] | > 10 µM |  |
| O=C(OCC1CCNCC1)N1CCc2ccccc2[C@@H]1c1ccc(F)cc1 [Compound 2170] | 1.59 µM |  |
| O=C(N[C@H]1CCCNC1)N1CCc2ccccc2[C@@H]1c1ccc(F)cc1 [Compound 2171] | 0.13 µM |  |
| O=C(N[C@@H]1CCCNC1)N1CCc2ccccc2[C@@H]1c1ccc(F)cc1 [Compound 2172] | 0.43 µM |  |
| CN1CCC(COC(=O)N2CCc3ccccc3[C@@H]2c2ccc(F)cc2)CC1 [Compound 2173] | 3.22 µM |  |
| COC(C(=O)N1CCc2ccccc2[C@@H]1c1ccc(F)cc1)C1CN2CCC1CC2 (stereo partly drawn) [Compound 2175, 1-((S)-1-(4-fluorophenyl)-3,4-dihydroisoquinolin-2(1H)-yl)-2-methoxy-2-(quinuclidin-3-yl) ethenone] | 4.13 µM |  |
| O=C(OC1CCNCC1)N1CCc2ccccc2[C@@H]1c1ccc(F)cc1 [Compound 2176] |  | EC50 [2]: 0.29 µM |
